Experimental data as given in US12320799B2, “Methods of measuring signaling pathway activity for selection of therapeutic agents” (Celcuity Inc., priority 2017, dated 2025).

What was measured:
Format in all cases: cell-based, human
[1] = tested on: HER family signaling pathways and the c-Met signaling pathway; assay: CELx ex vivo test of C21 sample simultaneously agonized with NRG1, EGF and HGF; conditions: C21 cell sample simultaneously agonized with NRG1, EGF and HGF
Protocol: (§1) A HER2+ tumor cell sample, C21, was tested using essentially the same methods described in Examples 1 and 3 above to evaluate the status of the c-Met, EGFR, HER2 and HER3 pathways. […] Thus, this cell sample was suitable to assess whether cells found to be responsive to c-Met and EGFR inhibitors ex vivo in the CELx test would respond to these same inhibitors when another portion of the same cell sample was implanted in a xenograft mouse model.
(§2) This finding is not related to the receptor or gene amplification status of either receptor, nor observable when signaling activity is measured in isolation. This highlights the advantages of evaluating multiple signaling pathways simultaneously in live cells.

c-Met signaling = assay: CELx ex vivo test of C21 sample agonized only by HGF; conditions: C21 cell sample agonized only by HGF
Protocol: as §1, §2

FLT3 signaling pathway = assay: CELx multiple pathway test, impedance biosensor cell adhesion, FL/Gilteritnib pair; conditions: activator FL
Text: Biosensor and transducer: A 96-well impendence E-Plate (ACEA, San Diego, CA) was placed onto an xCELLigence RTCA MP Station impendence biosensor (ACEA, San Diego, CA). The biosensor measured simultaneously the impedance of every well. The change in impedance for a particular well is proportional to the number of cells and type of attachment the cells have with the impedance microplate. Changes in impedance indicate a response to perturbation of these small cell populations. Coatings: The 96-E-Plate were wells were coated with fibronectin and or collagen. Collagen is purchased from Advanced BioMatrix (Carlsbad, CA) and fibronectin from Sigma-Aldrich (St. Louis, MO). Tissue and cell samples: A total of 18 samples of human tumor cells from breast, lung, colon, ovarian, kidney, bladder cancer were studied. For each of these six different cancer types, tumor cell samples from three different patients were tested. Any biomarkers that are used to guide selection of targeted therapy are listed in Table 18 for each patient if they were present. Signaling Pathways activator agent and targeted therapeutic pairs: Eleven different signaling pathways were studied in each human tumor cell sample using […] signaling pathway activator agent and targeted therapeutic pairs. Each of the signaling pathway activator agent and targeted therapeutic pairs affect the same signaling pathway. Each of the signaling pathway activator agents is a well-characterized and specific agonist of its associated signaling pathway and each of the targeted therapeutic agents is a well-characterized and specific antagonist of the same associated signaling pathway. The signaling pathway activator agents and targeted therapeutics used to characterize the activity level of the associated signaling pathway are summarized in Table 16 below:
Other Reagents: Standard media antibiotics (e.g. penicillin, streptomycin) and other buffers were purchased and used as delivered from ATCC (Manassas, VA, USA) or Life Technologies (Grand Island, NY). Procedure: For each test of a patient cell sample with a pair of signaling pathway activator and targeted therapeutic agents, six wells were seeded with approximately 15,000 cells in 120 uL culture media. Twenty microliters of the targeted therapeutic agent were added to two wells of each patient's cells and 20 microliters of standard media were added to the other four wells for each patient 18 hours in advance of addition of the signaling pathway activator agent. Signaling pathway stimulation was initiated with the addition of 20 ul of the signaling pathway activator agent in the two wells that received a targeted therapeutic agent and in two additional wells for each patient's set of cells without the targeted therapeutic. The impedance recording of attachment and adhesion change was performed at 37° C., 5% C02. Data was recorded on a continuous basis throughout the test, where the data presented is from the initial baseline level of cell attachment compared to the subsequent effects following the targeted therapeutic agent and the signaling pathway activator agent additions on the 18 different patient samples.
For each of the 18 patient samples, up to 11 different signaling pathways were tested. The output value represents the difference between the amount of cell adhesion change resulting from addition of the signaling pathway activator agent and the amount of cell adhesion change resulting from addition of the targeted therapeutic agent.

Question: `CN1CCC(COc2cnc(-c3cccc(Cn4nc(-c5cccc(C#N)c5)ccc4=O)c3)nc2)CC1` [tepotinib] was tested. Which total signaling inhibited [1] did it give?
Answer: less than 10%

Question: And the “percentage of c-Met signaling activity inhibited” value (c-Met signaling)?
Answer: ~100%

Question: How did the output value (FLT3 signaling pathway; C2 breast tumor cells) turn out when `CCc1nc(C(N)=O)c(Nc2ccc(N3CCC(N4CCN(C)CC4)CC3)c(OC)c2)nc1NC1CCOCC1` [Gilteritnib] was run?
Answer: 7

Question: And the output value (FLT3 signaling pathway; C21 breast tumor cells)?
Answer: 9

Question: What about the output value (FLT3 signaling pathway; C34 breast tumor cells) of the same compound?
Answer: 10

Question: What about the output value (FLT3 signaling pathway; C54 ovarian tumor cells) of the same compound?
Answer: 10

Question: And the output value (FLT3 signaling pathway; C77 ovarian tumor cells)?
Answer: 6
